Measured values as given in patent publication US9012443B2 (Amgen Inc., priority 2011, dated 2015).

What was measured:
Nav 1.7 [1] = molecular target: T1, Nav 1.7 (Homo sapiens (Human), UniProt Q15858); assay: Nav 1.7 IWQ in vitro assay (IonWorks Quattro population patch-clamp); assay type: cell-based; conditions: 293 cells stably transfected with Nav 1.7; second part of table; read-out: Nav1.7 IWQ IC50 IP
In short: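 HEK293 cells stably expressing Nav 1.7, recorded by automated population patch-clamp with a train of depolarizations producing increasing inactivation. Single compound concentration added during 3–8 min unclamped period, then same protocol repeated. Leak-corrected current at 26th pulse to −20 mV gave percent block (duplicate); IC50 fitted from concentration–block curves.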

Nav 1.7 [2] = molecular target: T1, Nav 1.7; assay: Nav 1.7 in vitro PX assay (PatchXpress whole cell voltage clamp); assay type: cell-based; conditions: 293 cells, human Nav1.7, partially inactivated state; read-out: Nav1.7 PX IC50 IP
In short: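 HEK293 cells stably expressing human Nav1.7, whole-cell voltage clamp on PatchXpress, held at potential giving 20–50% inactivation; current elicited by 20 msec pulse to −10 mV.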

T1 sequence (Q15858 whole entry): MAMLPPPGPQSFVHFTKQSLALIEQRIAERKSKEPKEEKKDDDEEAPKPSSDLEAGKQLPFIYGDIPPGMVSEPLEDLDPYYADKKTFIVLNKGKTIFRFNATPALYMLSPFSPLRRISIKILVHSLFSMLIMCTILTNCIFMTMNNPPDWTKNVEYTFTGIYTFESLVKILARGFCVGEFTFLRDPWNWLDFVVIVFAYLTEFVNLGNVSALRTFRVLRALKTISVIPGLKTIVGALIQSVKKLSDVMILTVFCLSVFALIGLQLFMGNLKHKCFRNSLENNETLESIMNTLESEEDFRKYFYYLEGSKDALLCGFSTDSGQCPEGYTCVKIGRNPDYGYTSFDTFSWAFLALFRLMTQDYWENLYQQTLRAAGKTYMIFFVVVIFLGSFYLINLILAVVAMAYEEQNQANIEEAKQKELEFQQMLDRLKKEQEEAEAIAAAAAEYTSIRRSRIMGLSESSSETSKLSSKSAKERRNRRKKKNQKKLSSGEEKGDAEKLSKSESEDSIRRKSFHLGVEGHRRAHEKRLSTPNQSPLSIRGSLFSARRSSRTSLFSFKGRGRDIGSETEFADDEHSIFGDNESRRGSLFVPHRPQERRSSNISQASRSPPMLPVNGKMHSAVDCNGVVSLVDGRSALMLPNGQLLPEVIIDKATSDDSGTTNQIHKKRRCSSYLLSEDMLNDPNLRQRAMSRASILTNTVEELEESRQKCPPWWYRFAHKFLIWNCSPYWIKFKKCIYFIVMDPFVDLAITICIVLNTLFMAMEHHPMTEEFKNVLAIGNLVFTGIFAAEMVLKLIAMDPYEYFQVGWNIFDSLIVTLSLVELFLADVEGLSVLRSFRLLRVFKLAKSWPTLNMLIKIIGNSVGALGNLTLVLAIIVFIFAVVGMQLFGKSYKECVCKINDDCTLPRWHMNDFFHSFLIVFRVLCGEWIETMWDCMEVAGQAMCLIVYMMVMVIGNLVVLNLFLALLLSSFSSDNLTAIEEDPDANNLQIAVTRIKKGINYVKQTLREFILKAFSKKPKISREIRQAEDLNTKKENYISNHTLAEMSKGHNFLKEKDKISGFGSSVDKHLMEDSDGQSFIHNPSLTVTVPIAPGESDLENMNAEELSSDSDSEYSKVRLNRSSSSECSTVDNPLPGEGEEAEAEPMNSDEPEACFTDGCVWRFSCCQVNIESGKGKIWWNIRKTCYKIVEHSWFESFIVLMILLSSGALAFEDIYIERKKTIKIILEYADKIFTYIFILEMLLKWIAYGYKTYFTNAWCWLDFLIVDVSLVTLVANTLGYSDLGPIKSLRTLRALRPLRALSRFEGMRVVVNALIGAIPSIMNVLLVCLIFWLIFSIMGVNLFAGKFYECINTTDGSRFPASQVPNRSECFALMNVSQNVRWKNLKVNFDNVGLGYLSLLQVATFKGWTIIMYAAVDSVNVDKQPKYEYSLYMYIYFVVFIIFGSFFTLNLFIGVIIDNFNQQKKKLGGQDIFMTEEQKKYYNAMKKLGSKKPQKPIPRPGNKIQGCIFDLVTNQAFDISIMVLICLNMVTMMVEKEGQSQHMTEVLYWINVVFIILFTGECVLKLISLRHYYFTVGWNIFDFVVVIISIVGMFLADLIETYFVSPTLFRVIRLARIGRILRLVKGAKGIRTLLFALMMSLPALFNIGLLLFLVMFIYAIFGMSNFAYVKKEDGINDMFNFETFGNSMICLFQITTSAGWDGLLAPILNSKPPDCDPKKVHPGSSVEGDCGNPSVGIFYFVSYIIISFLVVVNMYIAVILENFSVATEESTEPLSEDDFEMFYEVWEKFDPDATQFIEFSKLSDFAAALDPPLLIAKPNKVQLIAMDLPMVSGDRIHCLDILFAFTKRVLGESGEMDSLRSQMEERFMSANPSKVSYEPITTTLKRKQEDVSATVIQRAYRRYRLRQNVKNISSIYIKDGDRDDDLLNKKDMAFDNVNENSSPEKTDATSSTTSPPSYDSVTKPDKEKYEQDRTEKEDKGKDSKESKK

Structure (SMILES) | IC50 (Nav 1.7 [1]) | IC50 (Nav 1.7 [2])
COc1cc(C(F)(F)F)ccc1-c1nncc2cc(S(=O)(=O)Nc3ncc(F)s3)ccc12 [Example 255, N-(5-FLUOROTHIAZOL-2-YL)-1-(2-METHOXY-4-(TRIFLUOROMETHYL)PHENYL)PHTHALAZINE-6-SULFONAMIDE] | 20 nM | 150 nM
COc1cc(F)ccc1-c1nncc2cc(S(=O)(=O)Nc3ncc(F)s3)ccc12 [Example 256, 1-(4-FLUORO-2-METHOXYPHENYL)-N-(5-FLUOROTHIAZOL-2-YL)PHTHALAZINE-6-SULFONAMIDE] | 70 nM | 840 nM
COc1ccccc1-c1nncc2cc(S(=O)(=O)Nc3ncc(F)s3)ccc12 [Example 258] | 260 nM | 1050 nM
COc1cc(C(F)F)ccc1-c1ncnc2cc(S(=O)(=O)Nc3nccs3)ccc12 [Example 266, 4-(4-(DIFLUOROMETHYL)-2-METHOXYPHENYL)-N-(THIAZOL-2-YL)QUINAZOLINE-7-SULFONAMIDE] | 10 nM | 280 nM
COc1cc(Cl)ccc1-c1ncnc2cc(S(=O)(=O)Nc3nccs3)ccc12 [Example 267, 4-(4-CHLORO-2-METHOXYPHENYL)-N-(THIAZOL-2-YL)QUINAZOLINE-7-SULFONAMIDE] | 10 nM | 300 nM
COc1cc(C#N)ccc1-c1ncnc2cc(S(=O)(=O)Nc3nccs3)ccc12 [Example 269, 4-(4-CYANO-2-METHOXYPHENYL)-N-(THIAZOL-2-YL)QUINAZOLINE-7-SULFONAMIDE] | 20 nM | 470 nM
COc1cc(C#N)ccc1-c1ccnc2cc(S(=O)(=O)Nc3nccs3)ccc12 [Example 273, 4-(4-CYANO-2-METHOXYPHENYL)-N-(THIAZOL-2-YL)QUINOLINE-7-SULFONAMIDE] | 20 nM | 500 nM
COc1cc(F)ccc1-c1ccnc2cc(S(=O)(=O)Nc3nccs3)ccc12 [Example 274, 4-(4-FLUORO-2-METHOXYPHENYL)-N-(THIAZOL-2-YL)QUINOLINE-7-SULFONAMIDE] | 30 nM | 490 nM
COc1cc(Cl)ccc1-c1ccnc2cc(S(=O)(=O)Nc3nccs3)ccc12 [Example 275, 4-(4-CHLORO-2-METHOXYPHENYL)-N-(THIAZOL-2-YL)QUINOLINE-7-SULFONAMIDE] | 40 nM | 420 nM

Next, values leading:

IC50 (Nav 1.7 [1]) | IC50 (Nav 1.7 [2]) | Structure (SMILES)
260 nM | 5260 nM | COc1cc(C(F)(F)F)ccc1-c1nncc2cc(S(=O)(=O)Nc3ccncn3)ccc12 [Example 254, 1-(2-METHOXY-4-(TRIFLUOROMETHYL)PHENYL)-N-(PYRIMIDIN-4-YL)PHTHALAZINE-6-SULFONAMIDE]
40 nM | 960 nM | COc1cc(C(F)(F)F)ccc1-c1ncnc2cc(S(=O)(=O)Nc3ccncn3)ccc12 [Example 262, 4-(2-METHOXY-4-(TRIFLUOROMETHYL)PHENYL)-N-(PYRIMIDIN-4-YL)QUINAZOLINE-7-SULFONAMIDE]
10 nM | 280 nM | COc1cc(C(F)(F)F)ccc1-c1ncnc2cc(S(=O)(=O)Nc3ncc(F)s3)ccc12 [Example 263, N-(5-FLUOROTHIAZOL-2-YL)-4-(2-METHOXY-4-(TRIFLUOROMETHYL)PHENYL)QUINAZOLINE-7-SULFONAMIDE]
170 nM | 1870 nM | COc1cc(C(F)(F)F)ccc1-c1ncnc2cc(S(=O)(=O)Nc3ncco3)ccc12 [Example 264, 4-(2-METHOXY-4-(TRIFLUOROMETHYL)PHENYL)-N-(OXAZOL-2-YL)QUINAZOLINE-7-SULFONAMIDE]
20 nM | 150 nM | COc1cc(C(F)(F)F)ccc1-c1ncnc2cc(S(=O)(=O)Nc3ncns3)ccc12 [Example 265, 4-(2-METHOXY-4-(TRIFLUOROMETHYL)PHENYL)-N-(1,2,4-THIADIAZOL-5-YL)QUINAZOLINE-7-SULFONAMIDE]
1100 nM | 2520 nM | COc1cc(C(F)(F)F)ccc1-c1ncnc2cc(S(=O)(=O)Nc3nncs3)ccc12 [Example 268, 4-(2-METHOXY-4-(TRIFLUOROMETHYL)PHENYL)-N-(1,3,4-THIADIAZOL-2-YL)QUINAZOLINE-7-SULFONAMIDE]
